Columns and labels:
[1] = test system: human T lymphoma cell lines jurkat cell; test: Mitochondrial membrane potential, JC-1 fluorescent probe; type: cell-based
Text: Beyotime mitochondrial membrane potential detection kit (JC-1) is used; after the cells have been labeled with the fluorescent probe, they can be observed with a fluorescence microscope using conventional settings for observing red and green fluorescence, and photographed.
Measurement principle: The JC-1 fluorescent probe is used to detect mitochondrial potential; when the mitochondrial membrane potential is high, JC-1 aggregates in the mitochondrial matrix to form a polymer, which can produce red fluorescence; when the mitochondrial membrane potential is low, JC-1 can not aggregate in the mitochondrial matrix or the aggregation decreases, in this case, JC-1 exists in monomeric form and generates green fluorescence.
100 μl of suspension cultured cell liquid is centrifugalized and washed to obtain a sample. The sample is made into smears and observed by fluorescence microscopy, and three pictures are taken respectively by using conventional filter, red fluorescence, and green fluorescence sets in the same field of view. […]

[2] = test system: human T-cell lymphoma cell line jurkat cells; conditions: jurkat cells 2.0×10^5/ml, As2O3 0.5, 1.0, 2.0, 4.0 μmol/L; cited from earlier work
[3] = test system: human T cell lymphoma cell line jurkat cells; test: Detection of apoptotic bodies by light microscopy; type: cell-based; conditions: 0.8 μg/ml As2O3, 24 h, FIG. 12B
Procedure: Human B lymphoma cell line Daudi cells and human T lymphoma cell line jurkat cells in the control group and As2O3-treated group ([…]) which have been cultured for 24 h are collected to prepare smears, Wright-Giemsa stained, and observed under a light microscope to determine the morphological changes of cells.
1) apoptotic bodies: human B lymphoma cell line Daudi cells and human T-cell lymphoma cell line jurkat cells in the control group and in the As2O3-treated group which have been cultured or treated for 24 h are collected to prepare smears, subjected to the detection of apoptotic bodies and photographed. The results are shown in FIGS. 12A and 12B; FIG. 12A is a light microscopy image of apoptotic bodies of human T cell lymphoma cell line jurkat cells in the control group; and FIG. 12B is a light microscopy image of apoptotic bodies of human T cell lymphoma cell line jurkat cells treated with […] As2O3, and the […] As2O3 is prepared as follows: the arsenic compound solution obtained in Example 1 is first diluted with deionized water to 80 μg/ml, and then diluted to […] with 1640 culture fluid.

[4] = test system: human B lymphoma cell line Daudi cells; test: Trypan blue count of survival and dead Daudi cells; type: cell-based; conditions: for Death rate / the number of survival cells: Daudi cells
Procedure: (§1) Human lymphoma cell line cells are cultured in RPMI 1640 culture medium containing 10% new-born calf serum, placed in a 5% CO2 incubator, and cultured at 37° C. with saturated humidity. The medium is changed every 1-2 days. When the cells grow well, the drug is applied to the cells.
The growing well human B lymphoma cell line Daudi cells are cultured in a 24-well plate; each well is inoculated with 1 ml of the cell culture with a cell density of 1.5χ10^5/ml, and they are divided into experimental and control groups. […], the cells in each group are treated with the arsenic compound solution with respective concentration in terms of As2O3 added, for example, the cells in 0.8 μg/ml As2O3 group are treated with 0.8 μg/ml arsenic compound solution, and the arsenic compound solutions with different concentration are prepared by the following method: the arsenic compound solution obtained in Example 1 is first diluted with deionized water to 80 μg/ml, and then diluted to the desired concentration with 1640 culture fluid to obtain arsenic compound solutions with different concentration. The control group is added with a equal volume of culture fluid. The 24-well plate is placed in a 5% CO2 incubator, the cells are cultured at 37° C. and saturated humidity for a predetermined time, and then detected correspondingly. The cell suspensions are stained by physiological saline solution of 0.3% trypan blue for counting survival, dead cells; and the results are shown in Table 2: […]

[5] = test system: human T-cell lymphoma cell line jurkat cells; test: Cell apoptosis by AnnexinV/PI double staining flow cytometry; type: cell-based; conditions: for Apoptotic rate / Early apoptotic rate / Early apoptotic rate + Apoptotic rate / Survival rate: jurkat cells, treated for 44 hours
Procedure: The human T-cell lymphoma cell line jurkat cells in exponential growth phase are inoculated into a 6-well plate and cultured; 3 ml of jurkat cells with a cell density of 2χ10^5/ml are inoculated into each well, and the 6-well plate is placed in a 37° C., 5% CO2 incubator. After being cultured for 4 hours, […], and the arsenic compound solutions with different final As2O3 concentrations are prepared as follows: the arsenic compound solution obtained in Example 1 is first diluted with deionized water to 80 μg/ml, and then diluted to the desired concentration with 1640 culture fluid. The control group is treated with an equivalent volume of 1640 culture fluid. After being treated for 44 hours, jurkat cells in the experimental and control groups with a cell density of 1χ10^6/ml are collected, and apoptosis is studied by AnnexinV/PI double staining flow cytometry.)
The cells in the experimental and control groups with a density of 1χ10^6 jurkat cells/ml are respectively collected, washed twice with PBS, and subjected to centrifugation at 1000 r/min for 5 min, and the supernatant is discarded. Each 100 μl of the cell suspension is mixed with 5 μL Annexin-V, and then mixed with 2 μL of propidium iodide (PI). The mixtures are incubated at room temperature and dark conditions for 15 min, then mixed with 400 μl of 1χAnnexin-V binding buffer after incubation, and placed in an ice water bath. Meanwhile, the flow cytometry instrument is subjected to regular correct, besides, the normal cells in the control group are collected to prepare positive control and negative control for dead cells and survival apoptotic cells to correct the instrument, so that the instrument has more precise control threshold for different characteristic samples. Then, the stained cells were detected by flow cytometry; and similar results are obtained by experiment repeated: […]

[6] = test system: human T-cell lymphoma cell line jurkat cells; test: Trypan blue count of survival and dead jurkat cells; type: cell-based; conditions: for effect on proliferation / cell growth of jurkat cells: 0.2-0.8 μg/ml, 24, 48, 72 h; for Death rate / the number of survival cells / total number of the cells: jurkat cells
Procedure: as §1
The human T-cell lymphoma cell line jurkat cells in exponential growth phase are inoculated into a 24-well plate and cultured; 1 ml of jurkat cells with a cell density of 2χ10^5/ml are inoculated into each well, and the 24-well plate is placed in a 37° C., 5% CO2 incubator. Jurkat cells are treated with the arsenic compound solutions with different final As2O3 concentrations of 0, 0.2, 0.4, 0.8 μg/ml for 24, 48, 72 hours, and the arsenic compound solutions with different final As2O3 concentrations are prepared as follows: the arsenic compound solution obtained in Example 1 is first diluted with deionized water to 80 μg/ml, and then diluted to the desired concentration with 1640 culture fluid. The treated cell suspensions are stained with physiological saline solution of 0.3% trypan blue for determining survival, dead cell count, and the results shown in Table 3: […]

[7] = test system: human malignant B cell lymphoma cell line Raji cells; conditions: Raji cells 2.0×10^5/ml, 0.5˜2.0 μmol/L As2O3, 24, 48, 72 hours; cited from earlier work

## arsenic trioxide [As2O3]
[1]; 0.4 μg/m As2O3 treated group compared with control group
  number of the cells and red fluorescence intensity of JC-1 in the mitochondria: have decreased significantly
[1]; 0.8 As2O3 treated group compared with 0.4 μg/m group
  number of the cells and red fluorescence intensity of JC-1 in the cells: have also decreased significantly
[2]
  effect on cell growth: did not inhibit cell growth
[3]
  morphological changes, apoptotic bodies: nuclear fragmentation, cellular debris and apoptotic bodies appear
[4]; 0.1-0.8 μg/ml, 20 h and 68 h, dose dependence
  effect on cell viability and growth of Daudi cells: significantly reduce the cell viability
[4]; As2O3 0.1 μg/ml, 20 h
  Death rate: 33%
  the number of survival cells: 1.40 10^5/ml
[4]; As2O3 0.1 μg/ml, 68 h
  Death rate: 66%
  the number of survival cells: 1.24 10^5/ml
[4]; As2O3 0.2 μg/ml, 20 h
  Death rate: 44%
  the number of survival cells: 1.27 10^5/ml
[4]; As2O3 0.2 μg/ml, 68 h
  Death rate: 75%
  the number of survival cells: 0.77 10^5/ml
[4]; As2O3 0.4 μg/ml, 20 h
  Death rate: 56%
  the number of survival cells: 0.99 10^5/ml
[4]; As2O3 0.4 μg/ml, 68 h
  Death rate: 88%
  the number of survival cells: 0.30 10^5/ml
[4]; As2O3 0.8 μg/ml, 20 h
  Death rate: 68%
  the number of survival cells: 0.58 10^5/ml
[4]; As2O3 0.8 μg/ml, 68 h
  Death rate: 98%
  the number of survival cells: 0.06 10^5/ml
[4]; comparison of Table 2 with Table 3
  sensitivity of Daudi cells to As2O3-induced cell death relative to jurkat cells: more sensitive
[5]; R=0.997 (P<0.01), dose-dependent
  relation of jurkat cell apoptotic rate to concentration: positively correlated with the concentration
[5]; As2O3 0.2 μg/ml
  Apoptotic rate: 0.7%
  Early apoptotic rate: 6.5%
  Early apoptotic rate + Apoptotic rate: 7.2%
  Survival rate: 92.8%
[5]; As2O3 0.4 μg/ml
  Apoptotic rate: 1.4%
  Early apoptotic rate: 14.1%
  Early apoptotic rate + Apoptotic rate: 15.5%
  Survival rate: 84.5%
[5]; As2O3 0.8 μg/ml
  Apoptotic rate: 5.0%
  Early apoptotic rate: 26.1%
  Early apoptotic rate + Apoptotic rate: 31.0%
  Survival rate: 69.0%
[5]; As2O3 1.6 μg/ml
  Apoptotic rate: 15.8%
  Early apoptotic rate: 50.8%
  Early apoptotic rate + Apoptotic rate: 66.6%
  Survival rate: 33.4%
[6]
  effect on proliferation / cell growth of jurkat cells: can inhibit cell growth
[6]; listed as arsenic compound
  effect on proliferation / cell growth of jurkat cells: significant inhibitory effect
[6]; As2O3 0.2 μg/ml, 24 h
  Death rate: 5.2%
  the number of survival cells: 7.56 10^5/ml
  total number of the cells: 7.98 10^5/ml
[6]; As2O3 0.2 μg/ml, 48 h
  Death rate: 16%
  the number of survival cells: 10.29 10^5/ml
  total number of the cells: 12.18 10^5/ml
[6]; As2O3 0.2 μg/ml, 72 h
  Death rate: 46.1%
  the number of survival cells: 4.95 10^5/ml
  total number of the cells: 9.19 10^5/ml
[6]; As2O3 0.4 μg/ml, 24 h
  Death rate: 25.9%
  the number of survival cells: 4.87 10^5/ml
  total number of the cells: 6.57 10^5/ml
[6]; As2O3 0.4 μg/ml, 48 h
  Death rate: 34%
  the number of survival cells: 5.12 10^5/ml
  total number of the cells: 7.73 10^5/ml
[6]; As2O3 0.4 μg/ml, 72 h
  Death rate: 50.9%
  the number of survival cells: 3.66 10^5/ml
  total number of the cells: 7.45 10^5/ml
[6]; As2O3 0.8 μg/ml, 24 h
  Death rate: 47.3%
  the number of survival cells: 2.92 10^5/ml
  total number of the cells: 5.53 10^5/ml
[6]; As2O3 0.8 μg/ml, 48 h
  Death rate: 55%
  the number of survival cells: 2.5 10^5/ml
  total number of the cells: 5.61 10^5/ml
[6]; As2O3 0.8 μg/ml, 72 h
  Death rate: 69.7%
  the number of survival cells: 1.84 10^5/ml
  total number of the cells: 6.08 10^5/ml
[7]
  effect on cell growth (number of active cells): inhibited cell growth in a dose dependent manner
